Laboratory results as given in patent EP4606800A1, “COMPOUND BASED ON ORYDALMINE STRUCTURE AND USE THEREOF” (Beijing Tide Pharmaceutical Co., Ltd., priority 2022, dated 2024).

What was measured:
[1] = system: Acetic Acid-induced Writhing Model; assay: Analgesia test in acetic acid-induced writhing model (oral gavage); assay type: in vivo; details: CD-1 mice, n=5, mean ± standard error, single oral gavage; for Number of Writhing 5-15 min: 5-15 min after injection of 0.6% glacial acetic acid, acetic acid 2h after administration (Fentanyl intravenous, 10 min after). Dose mg/kg: Fentanyl 0.008, A10-0 18.0, A3 30.0, A10 30.1, A14 30.6, A15 20.6, A17 18.7, A18 32.3, A21 31.8, A22 22.3, A7 40.7, A19 18.4, A23 28.4, A44 32.0, A24 25.5, A53 26.9, A40 34.5, A55 40.5, A57 26.7, A4 30; for Number of Writhing 15-30 min: 15-30 min after injection of 0.6% glacial acetic acid, acetic acid 2h after administration (Fentanyl intravenous, 10 min after). Dose mg/kg: Fentanyl 0.008, A10-0 18.0, A3 30.0, A10 30.1, A14 30.6, A15 20.6, A17 18.7, A18 32.3, A21 31.8, A22 22.3, A7 40.7, A19 18.4, A23 28.4, A44 32.0, A24 25.5, A53 26.9, A40 34.5, A55 40.5, A57 26.7, A4 3; for Time to start writhing: 0.6% glacial acetic acid 2h after administration (Fentanyl intravenous, 10 min after). Dose mg/kg: Fentanyl 0.008, A10-0 18.0, A3 30.0, A10 30.1, A14 30.6, A15 20.6, A17 18.7, A18 32.3, A21 31.8, A22 22.3, A7 40.7, A19 18.4, A23 28.4, A44 32.0, A24 25.5, A53 26.9, A40 34.5, A55 40.5, A57 26.7, A4 30.0; for Number of Writhing Total: total of 5-15 min and 15-30 min after injection of 0.6% glacial acetic acid, acetic acid 2h after administration (Fentanyl intravenous, 10 min after). Dose mg/kg: Fentanyl 0.008, A10-0 18.0, A3 30.0, A10 30.1, A14 30.6, A15 20.6, A17 18.7, A18 32.3, A21 31.8, A22 22.3, A7 40.7, A19 18.4, A23 28.4, A44 32.0, A24 25.5, A53 26.9, A40 34.5, A5
[2] = system: inflammatory pain model induced by complete Freund's adjuvant in mice; assay: Mechanical pain test of inflammatory pain model induced by complete Freund's adjuvant in mice; assay type: in vivo, mice (C57BL/6J); details: C57BL/6J male mice, n=4; tested 0.5h, 2h, 8h, 24h after first administration; Morphine 2 mg/kg subcutaneous; A10-0 5 mg/kg and A3 8.4 mg/kg oral gavage at intervals of 8h

SMILES	Number of Writhing 5-15 min [1]	Number of Writhing 15-30 min [1]	Time to start writhing [1]	Number of Writhing Total [1]	analgesic effect on the inflammatory pain model in mice (mechanical pain threshold, Fig. 1) [2]	effect of reducing the sole-swelling degree in mice (plantar thickness, Fig. 2) [2]
COc1cc2c(cc1OC)[C@@H]1Cc3ccc(OC(=O)[C@@H](C)c4ccc(-c5ccccc5)c(F)c4)c(OC)c3CN1CC2 [Compound A4]	14±14	12±14	154 ± 151 s	26±27		
COc1cc2c(cc1OC)[C@@H]1Cc3ccc(O)c(OC)c3CN1CC2 [Compound A10-0, Corydalmine]	4±3	5±3	545 ± 221 s	9±2	did not have a significant analgesic effect on the inflammatory pain model in mice	had an effect of reducing the sole-welling degree in mice, but the effect was maintained for a short time
CN1CC[C@]23c4c5ccc(O)c4O[C@H]2[C@@H](O)C=C[C@H]3[C@H]1C5 [Morphine]					a good analgesic effect on the inflammatory pain mode in mice, but the effect cannot be maintained for a long term	did not have an effect of reducing the sole-swelling degree in mice
